Measured values as given in patent publication US20240240189A1, “CANCER TREATMENT BY TARGETING PROTEINS OR INTERACTIONS OF EPHRINB-RGS3-KIF20A-SEPT7 AXIS” (CITY OF HOPE, priority 2021, published 2024).
Entries after “also recorded” stand apart in the source; their conditions may differ.

Legend:
KIF20A = test: Western blot of KIF20A in Daoy clones with Tet-on shKIF20A726; type: cell-based, human; conditions: three Daoy clones, doxycycline induction of Tet-on shKIF20A726
Procedure: Western Blot: Daoy cell clones stably integrated with Tet-on shKIF20A726 were cultured with or without Doxycycline induction for 3 days. These Daoy cells were washed with PBS, lysed with 2×SDS loading buffer and boiled for 5 minutes. Denatured proteins were resolved by SDS-PAGE and transferred to a PVDF membrane for Western blot detection by KIF20A (L13) antibody (1:500) and HRP-conjugated Donkey anti-Goat second antibody (1:2500) with chemiluminescent substrate (ThermoFisher Scientific, Cat: 34095).
(§1) Generation of Daoy cell lines with stably integrated Tet-on inducible shRNA expression system: Daoy cells were infected with lentivirus of Tet-on inducible human KIF20A shRNA-726 and GFP-Luciferase prepared from Tet-pLKO-hushKIF20A726 plasmid and Hiv7CMVGFP-IRES-Luciferase plasmid, respectively. The transduced Daoy cells were selected for stable single clones with Puromycin (1 μg/ml, Sigma-Aldrich) and GFP fluorescence signal in DMEM (Invitrogen) with 10% fetal bovine serum. Single clones were picked up by glass cloning cylinders (Sigma-Aldrich) in 10 cm plate. Three clones were obtained and tested for growth ability and doxycycline (0.5 μg/ml) inducibility using growth curve assay, western blots and luciferase reporter assay system. Clone #2 was selected for further use.

GISC017 cells = test: GISC017 xenograft in brains of NSG mice; type: in vivo; conditions: GISC017 clones with Tet-inducible shKIF20A726 in NSG mouse brain, doxycycline treatment
Procedure: FIG. 12a: NSG mice were injected with GISC017 cells stably integrated with Tet-inducible shRNA and luciferase. Treatment with doxycycline started at 10 days after cell implantation (indicated by the red line). FIG. 12b: Survival data of the mice were analyzed by Kaplan-Meier plot.
GISC017 cell clones stably integrated with a Tet-inducible shKIF20A726 and luciferase expression cassette were established.

Daoy human MB cells = test: Growth assay of Daoy cells; type: cell-based; conditions: three Daoy clones, inducible expression of shKIF20A726 (+Dox)
Procedure: as §1, with “plate.” for “plate. Three clones were obtained and tested for growth ability and doxycycline (0.5 μg/ml) inducibility using growth curve assay, western blots and luciferase reporter assay system. Clone #2 was selected for further use.”
Growth Assay of tumor cells: Mouse MB cell lines, or Daoy clones stably integrated with Tet-on inducible human KIF20A shRNA-726, or Wild Type Daoy cells, were seeded into multiple wells of 24 well plates (2×10^4 or 1×10^4 cells per well). Cells in quadruplicate were then dissociated and counted using a hemocytometer at consecutive days after initial plating.

## 5′-GAGGAGTGTCTACATCGAA-TTCAAGAGA-TTCGATGTAGACACTCCTC-3′ (GAGGAGTGTCTACATCGAATTCAAGAGATTCGATGTAGACACTCCTC; hairpin, further chemistry not given here) [shKIF20A726, shRNA targeting human KIF20A transcript]
KIF20A
  KIF20A expression (Western blot): significant knockdown of KIF20A expression in all three cell clones; also recorded: reduction of KIF20A expression
GISC017 cells
  animal survival: prolong animal survival
  tumor xenograft growth: suppress tumor xenograft growth
Daoy human MB cells
  cell proliferation: significantly inhibit the proliferation of all three clones; also recorded: inhibit cell proliferation
